In general, IC50 refers to the midpoint of a concentration-inhibition curve.

One assay addresses mA2a (Mus musculus (Mouse), UniProt Q60613). Nature of the assay: cAMP inhibition assay in mA2a/CHO cells. It counts as cell-based. The conditions noted are these: adenosine stimulation, read-out: cAMP & FLIPR IC50 (nM) mA2a. The protocol:
(§1) hA2a/CHO, hA2b/CHO and mA2a/CHO (Genscript) were plated at 5×10^3 cells/well into 384-well polystyrene plates at the day of experiment. Compounds were pre-incubated with cells for 30 min at 37° C., 5% CO2. Then […] adenosine was added to the cells and incubated for 30 min at 37° C., 5% CO2. Detection reagent (CISBIO) was added and the plates were incubated for 60 min at room temperature. The signal was captured by Envision.

The target of assay [1] is T1, hA2a (Homo sapiens (Human), UniProt P29274). Nature of the assay: Radioligand binding to hA2a membrane ([3H]-CGS21680). The conditions noted are these: [3H]-CGS21680, 90 min at 25° C., read-out: Binding Affinity (IC50 nM) hA2a. The protocol:
(§2) Binding affinity and specificities of the compounds against different subtype of human adenosine receptors (hA1, hA2A, hA2B and hA3) were characterized with cell membrane chromatography binding analysis.
The compounds at different concentrations were incubate with hA2a membrane (from PerkinElmer) and [^3H]-CGS21680 for 90 min at 25° C., meanwhile 100 μL 0.5% PEI solution was added into […]-96 GF/B filter plate for 60 min at 4° C., then […]-96 GF/B filter plate was washed twice with 50 ml wash buffer, the membrane mix was transferred into […]-96 GF/B filter plate, and the filter plate was washed 4 times before incubated at 55° C. for 10 min. At last, […] ULTIMA GOLD was added into each well, and CPM was read by TopCount.
(§3) The empty boxes in the tables below indicate data not available.

In assay [2] the target is T2, hA1 (Homo sapiens (Human), UniProt P30542). Nature of the assay: Radioligand binding to hA1 membrane ([3H]-DPCPX). The conditions noted are these: 50 min at 25° C., read-out: Binding Affinity (IC50 nM) hA1. The protocol: as §2
The compounds at different concentrations were incubate with hA1 membrane (from PerkinElmer) and [^3H]-8-Cyclopentyl-1,3-dipropylxanthine (DPCPX) for 50 min at 25° C., meanwhile 100 μL 0.5% PEI solution was added into […]-96 GF/B filter plate for 60 min at 4° C., then […]-96 GF/B filter plate was washed twice with 50 ml wash buffer, the membrane mix was transferred into […]-96 GF/B filter plate, and the filter plate was washed 4 times before incubated at 55° C. for 10 min. At last, […] ULTIMA GOLD was added into each well, and CPM was read by TopCount.
as §3

The target of assay [3] is T2, hA1. Nature of the assay: FLIPR inhibition assay in hADORA1/CHO (hA1 expressing) cells. To be noted: hADORA1/CHO cells, FLIPR calcium, adenosine stimulation; read-out: cAMP & FLIPR IC50 (nM) hA1. It counts as cell-based. In outline: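 CHO cells expressing human A1 were plated at 1×10^4 cells/well the day before, then loaded with FLIPR Calcium 5 dye for 60 min at 37 °C, 5% CO2. Compounds were added at several concentrations for 400 s before stimulation with […] adenosine. The calcium signal was recorded by FLIPR.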

Assay [4] addresses T1, hA2a. Nature of the assay: cAMP inhibition assay in hA2a/CHO cells. It counts as cell-based. The conditions noted are these: adenosine stimulation, read-out: cAMP & FLIPR IC50 (nM) hA2a. In outline: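 CHO cells expressing human A2a, human A2b or mouse A2a, 5×10^3 cells/well, pre-incubated with compound 30 min at 37 °C, then stimulated with […] adenosine 30 min at 37 °C. cAMP read after 60 min room-temperature incubation with detection reagent.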

A further assay addresses hA2b (Homo sapiens (Human), UniProt P29275). Nature of the assay: cAMP inhibition assay in hA2b/CHO cells. Format: cell-based. The conditions noted are these: adenosine stimulation, read-out: cAMP & FLIPR IC50 (nM) hA2b. The protocol: as §1

T1 sequence (P29274 whole entry): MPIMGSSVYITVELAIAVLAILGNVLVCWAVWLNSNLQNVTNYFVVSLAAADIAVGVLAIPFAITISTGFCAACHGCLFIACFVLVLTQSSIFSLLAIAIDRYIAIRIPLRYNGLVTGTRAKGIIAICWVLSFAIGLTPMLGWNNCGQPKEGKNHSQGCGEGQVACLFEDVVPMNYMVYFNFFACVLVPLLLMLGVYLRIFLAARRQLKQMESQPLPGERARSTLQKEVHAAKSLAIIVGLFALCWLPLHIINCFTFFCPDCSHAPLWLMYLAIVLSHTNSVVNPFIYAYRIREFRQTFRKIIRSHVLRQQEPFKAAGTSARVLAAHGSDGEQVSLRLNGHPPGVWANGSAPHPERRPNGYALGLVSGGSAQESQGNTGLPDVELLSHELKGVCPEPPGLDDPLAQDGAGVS
T2 sequence (P30542 whole entry): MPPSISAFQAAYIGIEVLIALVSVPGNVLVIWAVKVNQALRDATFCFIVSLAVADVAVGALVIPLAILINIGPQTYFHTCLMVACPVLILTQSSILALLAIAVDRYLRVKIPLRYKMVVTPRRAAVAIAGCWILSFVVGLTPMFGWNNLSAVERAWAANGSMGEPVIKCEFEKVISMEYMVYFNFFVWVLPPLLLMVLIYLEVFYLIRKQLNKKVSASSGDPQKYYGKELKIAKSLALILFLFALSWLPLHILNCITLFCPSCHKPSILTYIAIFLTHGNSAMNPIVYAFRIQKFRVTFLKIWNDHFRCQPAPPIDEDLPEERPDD
hA2b, sequence (P29275 whole entry): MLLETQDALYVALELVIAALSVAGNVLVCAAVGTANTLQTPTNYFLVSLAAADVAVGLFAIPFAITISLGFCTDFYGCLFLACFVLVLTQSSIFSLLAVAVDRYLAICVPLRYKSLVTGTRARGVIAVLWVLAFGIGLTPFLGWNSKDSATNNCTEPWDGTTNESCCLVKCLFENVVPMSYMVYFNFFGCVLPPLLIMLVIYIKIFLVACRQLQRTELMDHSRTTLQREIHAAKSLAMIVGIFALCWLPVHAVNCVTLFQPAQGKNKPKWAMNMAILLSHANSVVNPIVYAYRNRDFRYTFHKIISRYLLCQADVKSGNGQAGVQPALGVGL
mA2a, sequence (Q60613 whole entry): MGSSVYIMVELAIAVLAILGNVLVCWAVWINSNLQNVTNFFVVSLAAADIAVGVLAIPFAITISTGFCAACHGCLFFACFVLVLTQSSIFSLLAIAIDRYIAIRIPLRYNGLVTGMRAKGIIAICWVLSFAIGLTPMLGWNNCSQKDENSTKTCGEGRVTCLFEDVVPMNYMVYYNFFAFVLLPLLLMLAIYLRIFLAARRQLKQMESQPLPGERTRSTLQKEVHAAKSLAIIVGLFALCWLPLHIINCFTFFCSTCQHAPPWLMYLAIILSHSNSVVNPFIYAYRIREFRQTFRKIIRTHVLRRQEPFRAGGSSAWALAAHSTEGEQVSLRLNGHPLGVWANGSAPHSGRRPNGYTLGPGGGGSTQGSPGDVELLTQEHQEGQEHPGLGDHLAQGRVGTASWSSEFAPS

Take `Cn1cc(-c2c(-n3nccn3)nc(N)n3nc(Cc4c(F)cccc4F)nc23)ccc1=O` [Example 25, 5-[5-amino-2-[(2,6-difluorophenyl)methyl]-7-(2H-1,2,3-triazol-2-yl)-[1,2,4]triazolo[1,5-c]pyrimidin-8-yl]-1-methyl-1,2-dihydropyridin-2-one]: the IC50 at mA2a is 30 nM; on hA2a [1], 1.4 nM; on hA1 [2], 7.9 nM; at hA1 [3] it was 21 nM; on hA2a [4] it was 20 nM; at hA2b, 582 nM.

Consider `Nc1nc(-c2ncco2)c(-c2ccc3nccn3c2)c2nc(Cc3ncccc3F)nn12` [Example 31, 2-((3-fluoropyridin-2-yl)methyl)-8-(imidazo[1,2-a]pyridin-6-yl)-7-(oxazol-2-yl)-[1,2,4]triazolo[1,5-c]pyrimidin-5-amine], for which the IC50 was determined as 51 nM on mA2a; 3 nM on hA2a [1]; 137 nM at hA1 [2]; 188 nM at hA1 [3]; 14 nM on hA2a [4]; 80 nM on hA2b.

In the case of `Nc1nc(-c2ccc(F)cc2)c(-c2ccc3nccn3c2)c2nc(Cc3ncccc3F)nn12` [Example 32, 7-(4-fluorophenyl)-2-((3-fluoropyridin-2-yl)methyl)-8-(imidazo[1,2-a]pyridin-6-yl)-[1,2,4]triazolo [1,5-c]pyrimidin-5-amine], the IC50 at mA2a was found to be 5.4 nM; at hA2a [1] it was 5.5 nM; at hA1 [2] it was 3.4 nM; on hA1 [3], 28 nM; on hA2a [4], 0.9 nM; on hA2b, 19 nM.

For the compound `Nc1cccc(Cc2nc3c(-c4ccc5nccn5c4)c(-c4ccc(F)cc4)nc(N)n3n2)n1` [Example 37, 2-((6-aminopyridin-2-yl)methyl)-7-(4-fluorophenyl)-8-(imidazo[1,2-a]pyridin-6-yl)-[1,2,4]triazolo[1,5-c]pyrimidin-5-amine], the IC50 on mA2a turned out to be 7.3 nM; on hA2a [1] it was 6.3 nM; at hA1 [2] it was 4 nM; at hA1 [3] it was 12 nM; at hA2a [4] it was 1.8 nM; on hA2b it was 12 nM.

As for `Cn1cc(-c2c(-c3ccc(C(F)F)cc3)nc(N)n3nc(Cc4ncccc4F)nc23)ccc1=O` [Example 41, 5-(5-amino-7-(4-(difluoromethyl)phenyl)-2-((3-fluoropyridin-2-yl)methyl)-[1,2,4]triazolo[1,5-c]pyrimidin-8-yl)-1-methylpyridin-2(1H)-one], the IC50 at mA2a worked out at 189 nM; at hA2a [1], 3.4 nM; on hA1 [2] it was 2.2 nM; on hA1 [3] it was 17 nM; at hA2a [4] it was 70 nM; on hA2b, 259 nM.

As for `COc1ccc(-c2nc(N)n3nc(Cc4ncccc4F)nc3c2-c2ccc(=O)n(C)c2)cc1` [Example 61, 5-(5-amino-2-((3-fluoropyridin-2-yl)methyl)-7-(4-methoxyphenyl)-[1,2,4]triazolo[1,5-c]pyrimidin-8-yl)-1-methylpyridin-2(1H)-one], the IC50 on mA2a worked out at 42 nM; on hA2a [1] it was 4.2 nM; on hA1 [2] it was 1.7 nM; on hA1 [3], 25 nM; on hA2a [4], 28 nM; on hA2b, 122 nM.

Regarding `Cn1cc(-c2c(-c3ccc(C(F)(F)F)cc3)nc(N)n3nc(Cc4ncccc4F)nc23)ccc1=O` [Example 62, 5-(5-amino-2-((3-fluoropyridin-2-yl)methyl)-7-(4-(trifluoromethyl)phenyl)-[l,2,4]triazolo[l,5-c]pyrimidin-8-yl)-l-methylpyridin-2(1H)-one], the IC50 on mA2a amounted to 318 nM; at hA2a [1], 5.2 nM; on hA1 [2], 5.1 nM; at hA1 [3] it was 27 nM; on hA2a [4], 184 nM; at hA2b, 602 nM.

Take `Cc1c(-c2c(-c3ccc(F)cc3)nc(N)n3nc(Cc4ncccc4F)nc23)ccc(=O)n1C` [Example 66, 5-(5-amino-7-(4-fluorophenyl)-2-((3-fluoropyridin-2-yl)methyl)-[1,2,4]triazolo[1,5-c]pyrimidin-8-yl)-1,6-dimethylpyridin-2(1H)-one]: the IC50 was 346 nM on mA2a; 7.2 nM at hA2a [1]; 46 nM at hA1 [2]; 69 nM at hA1 [3]; 31 nM at hA2a [4]; 109 nM on hA2b.

As to `Cn1cc(-c2c(-c3cccc(Cl)c3)nc(N)n3nc(Cc4ncccc4F)nc23)ccc1=O` [Example 70, 5-(5-amino-7-(3-chlorophenyl)-2-((3-fluoropyridin-2-yl)methyl)-[1,2,4]triazolo[1,5-c]pyrimidin-8-yl)-l-methylpyridin-2(lH)-one], the IC50 at mA2a came to 13 nM; at hA2a [1] it was 4.1 nM; on hA1 [2], 0.8 nM; at hA1 [3] it was 14 nM; at hA2a [4] it was 5.5 nM; on hA2b, 68 nM.

Turning to `COc1cccc(-c2nc(N)n3nc(Cc4ncccc4F)nc3c2-c2ccc(=O)n(C)c2)c1` [Example 77, 5-(5-amino-2-((3-fluoropyridin-2-yl)methyl)-7-(3-methoxyphenyl)-[1,2,4]triazolo[1,5-c]pyrimidin-8-yl)-1-methylpyridin-2(1H)-one], the IC50 at mA2a was 17 nM; at hA2a [1] it was 3.6 nM; at hA1 [2] it was 1.4 nM; on hA1 [3], 13 nM; at hA2a [4] it was 6.7 nM; at hA2b, 51 nM.

Turning to `Nc1nc(-c2ncco2)c(-c2ccnc(OC(F)F)c2)c2nc(Cc3c(F)cccc3F)nn12` [Example 85, 2-(2,6-difluorobenzyl)-8-(2-(difluoromethoxy)pyridin-4-yl)-7-(oxazol-2-yl)-[1,2,4]triazolo[1,5-c] pyrimidin-5-amine], the IC50 on mA2a was 11 nM; on hA2a [1], 5.5 nM; at hA1 [2] it was 5.4 nM; on hA1 [3] it was 27 nM; at hA2a [4], 15 nM; at hA2b, 48 nM.

Regarding `Nc1nc(-c2ncco2)c(-c2ccnc(OC(F)F)c2)c2nc(Cc3ncccc3F)nn12` [Example 86, 8-(2-(difluoromethoxy)pyridin-4-yl)-2-((3-fluoropyridin-2-yl)methyl)-7-(oxazol-2-yl)-[1,2,4]triaz olo[1,5-c]pyrimidin-5-amine], the IC50 worked out at 48 nM on mA2a; 8.3 nM on hA2a [1]; 21 nM on hA1 [2]; 59 nM on hA1 [3]; 71 nM at hA2a [4]; 83 nM at hA2b.

In the case of `Nc1nc(-n2nccn2)c(-c2ccc3nccn3c2)c2nc(Cc3ncccc3F)nn12` [Example 94, 2-[(3-fluoropyridin-2-yl)methyl]-8-[imidazo[1,2-a]pyridin-6-yl]-7-(2H-1,2,3-triazol-2-yl)-[1,2,4]triazolo[1,5-c]pyrimidin-5-amine], the IC50 at mA2a worked out at 20 nM; on hA2a [1], 3.5 nM; at hA1 [2], 52 nM; at hA1 [3], 41 nM; on hA2a [4], 7.7 nM; on hA2b, 94 nM.

Values taken from patent publication US10858365B2, “Triazolo-pyrimidine compounds and uses thereof” (Dizal (Jiangsu) Pharmaceutical Co., Ltd., priority 2018, dated 2020).
